Test results reported in the supplement of paper PMC9763283.

Columns and labels:
Test in all cases: area under growth-rate inhibition curve (AUC GRI) (dimensionless (GR-based AUC)); higher = less growth inhibition
Conditions in all cases: exposure time: 72 h; concentrations: 0.1, 1, 10 uM
SKBR3-LTR = system: SKBR3-LTR
Outline: (§1)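 Nuclear counts from Hoechst 33342- or DAPI-stained images were used to estimate the area under the growth-rate inhibition curve, with growth corrected by reference to untreated and DMSO-treated plates and starting plates. The six breast cancer cell line models, comprising two triple-negative lines and parental and drug-combination-resistant HER2+ lines, were treated with compound at 0.1, 1 or 10 µM for 72 h. Data came from 2 biological replicates, using Day 0 and Day 3 plates.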

BT474-LTR = system: BT474-LTR
Outline: as §1

MDA-MB-231 = system: MDA-MB-231
Outline: as §1

MDA-MB-468 = system: MDA-MB-468
Outline: as §1

SKBR3-P = system: SKBR3-P
Outline: as §1

BT474-P = system: BT474-P
Outline: as §1

Row | SMILES | area under growth-rate inhibition curve (SKBR3-LTR) | area under growth-rate inhibition curve (BT474-LTR) | area under growth-rate inhibition curve (MDA-MB-231) | area under growth-rate inhibition curve (MDA-MB-468) | area under growth-rate inhibition curve (SKBR3-P) | area under growth-rate inhibition curve (BT474-P)
1 | c1nc2nc(Nc3ccc(N4CCOCC4)cc3)nc(NC3CCCCC3)c2[nH]1 [Reversine] | 0.677 | 0.65 | 0.689 | 0.643 | 0.662 | 0.648
2 | Cc1cccn2c(=O)c(-c3nnn[n-]3)cnc12.[K+] [Pemirolast Potassium] | 1.05 | 1.05 | 1.05 | 1.04 | 1.03 | 1.04
3 | OCCN(CCO)c1nc(N2CCCCC2)c2nc(N(CCO)CCO)nc(N3CCCCC3)c2n1 [Dipyridamole] | 1.05 | 1.12 | 0.97 | 0.962 | 1.05 | 1.04
4 | CC12CCC3=C4CCC(=O)C=C4CCC3C1CCC2(O)CC#N (stereo not drawn) [Dienogest] | 1.04 | 1.12 | 1.03 | 1.03 | 1.01 | 1.05
5 | O=C1CC2(CCCC2)CC(=O)N1CCCCN1CCN(c2ncccn2)CC1.[Cl-].[H+] [Buspirone hydrochloride] | 1.03 | 1.02 | 1 | 1.01 | 1.01 | 1.01
6 | NCCCC[C@H](N[C@@H](CCc1ccccc1)C(=O)O)C(=O)N1CCC[C@H]1C(=O)O.O.O [Lisinopril] | 1.08 | 1.1 | 1.01 | 1 | 1.02 | 1.06
7 | CCN(CC)CCOc1ccc(C(=C(Cl)c2ccccc2)c2ccccc2)cc1.O=C(O)CC(O)(CC(=O)O)C(=O)O [Clomifene citrate] | 0.941 | 0.876 | 0.915 | 0.94 | 0.914 | 0.796
8 | CCC(=C(c1ccc(O)cc1)c1ccc(OCCN(C)C)cc1)c1ccccc1 [4-hydroxytamoxifen] | 0.934 | 0.936 | 0.935 | 0.896 | 0.979 | 0.865
9 | COc1ccc(C(=O)N2CCCC2=O)cc1 [Aniracetam] | 1 | 1.08 | 1.01 | 1.02 | 1.01 | 1.04
10 | CCOC(=O)c1ncn2c1CN(C)C(=O)c1cc(F)ccc1-2 [Flumazenil] | 1.03 | 1.06 | 1.01 | 1.02 | 0.989 | 1.03
11 | CN(C)CCC(c1ccc(Cl)cc1)c1ccccn1.O=C(O)/C=C\C(=O)O (stereo not drawn) [Chlorpheniramine Maleate] | 1.03 | 1.12 | 1.03 | 1.04 | 1.01 | 1.05
12 | Cc1ccccc1C(=O)Nc1ccc(C(=O)N2CCCC(O)c3cc(Cl)ccc32)c(C)c1 (stereo not drawn) [Tolvaptan] | 1.03 | 1.03 | 1.01 | 1.02 | 1.02 | 1
13 | CC(C)Oc1ccc(-c2nc(-c3cccc4c3CC[C@@H]4NCCO)no2)cc1C#N [Ozanimod (RPC1063)] | 0.976 | 1 | 0.889 | 0.927 | 0.984 | 0.933
14 | C[C@@]12N[C@@H](Cc3ccccc31)c1ccccc12.O=C(O)/C=C/C(=O)O [(-)-MK 801 Maleate] | 1.06 | 1.08 | 1.03 | 1.04 | 1.03 | 1.03
15 | CN1CCN(C(=O)c2cc3cc(Cl)ccc3[nH]2)CC1 | 1.05 | 1.06 | 1.04 | 1.04 | 0.993 | 1.02
16 | COc1cc(NC(=O)c2ccccn2)ccc1Cl | 1.05 | 1.07 | 1.05 | 1.01 | 0.979 | 1.01
17 | COc1ccccc1Oc1c(NS(=O)(=O)c2ccc(C(C)(C)C)cc2)nc(-c2ncccn2)nc1OCCO.O [Bosentan Hydrate] | 1.06 | 1.09 | 1.04 | 1.01 | 1.01 | 1.04
18 | CCN(CC)CCOC(=O)c1ccc(N)cc1.[Cl-].[H+] [procaine] | 1.07 | 1.05 | 1.03 | 1.03 | 1.01 | 1.02
19 | CN1CCCC1Cc1c[nH]c2ccc(CCS(=O)(=O)c3ccccc3)cc12.[Br-].[H+] (stereo not drawn) [Eletriptan HBr] | 1.03 | 1.14 | 1.04 | 1.02 | 1.01 | 1.03
20 | Fc1ccc([C@@H]2CCNC[C@H]2COc2ccc3c(c2)OCO3)cc1.[Cl-].[H+] [Paroxetine HCl] | 0.927 | 0.927 | 0.965 | 0.912 | 0.955 | 0.931
21 | N=C(N)N/N=C/c1c(Cl)cccc1Cl [Guanabenz Acetate] | 1.08 | 1.1 | 1.03 | 1 | 1.01 | 1.03
22 | C=CCC1(O)CCC2C3CCC4=CC(=O)CCC4=C3C=CC21C (stereo not drawn) [Altrenogest] | 1.08 | 1.01 | 1.03 | 1 | 1.04 | 0.953
23 | CN[C@@H]1CC[C@@H](c2ccc(Cl)c(Cl)c2)c2ccccc21.[Cl-].[H+] [Sertraline HCl] | 0.981 | 0.972 | 0.918 | 0.907 | 0.963 | 0.935
